Experimental data reported in patent EP3440167B2, “FRAGRANCED COMPOSITIONS AND THEIR USE” (Unilever IP Holdings B.V., priority 2016, dated 2017).

Legend:
Format in all cases: physicochemical
[1] = Experiment A: ozone chamber exposure of β-ionone on a surface, headspace SPME-GCMS; conditions: 1 hour exposure
Method: A β-ionone solution (10 % w/w in ethanol) was applied to a surface (20 microlitres) and was allowed to dry for one hour in a fume cupboard. The surface was then placed at the base of the ozone chamber. The ozone generator plug-in was turned on for the required time at regular intervals to achieve the desired ozone concentration inside the chamber (either 250 ppb or 350 ppb). After exposure of a surface to ozone for the desired time of 1 hour the surface was removed from the chamber and placed in a capped PVC container. The surface was left in the PVC container for 10 min and then an additional 20 min with an SPME fibre exposed to the head-space environment of the container. The headspace was measured by SPME-GCMS and the ratios of β-cyclocitral to β-ionone determined as follows: […]

[2] = Experiment B: ozone chamber exposure at 100 ppb over time, headspace SPME-GCMS; conditions: 100 ppb ozone
Method: A β-ionone solution (10 % w/w in ethanol) was applied to a surface (20 microlitres) and was allowed to dry for one hour in a fume cupboard. The surface was then placed at the base of the ozone chamber. The ozone generator plug-in was turned on for the required time at regular intervals to achieve the desired ozone concentration inside the chamber (either 250 ppb or 350 ppb). After exposure of a surface to ozone for the desired time of 1 hour the surface was removed from the chamber and placed in a capped PVC container. The surface was left in the PVC container for 10 min and then an additional 20 min with an SPME fibre exposed to the head-space environment of the container. The headspace was measured by SPME-GCMS and the ratios of β-cyclocitral to β-ionone determined as follows:
This experiment was run like Experiment A, except that the ozone level used was 100 ppb and after 1,2,3,4 and 5 hours measurements of headspace were made and the ratios of β-cyclocitral / β-ionone were calculated from headspace concentration.

[3] = Example 3: exposure of β-ionone on filter paper in ozone-free glovebox, GC-MS of headspace and extract; conditions: ozone below detection limit, 1 hour exposure
Method: A 0.3% solution of β-ionone in ethanol and a 0.3% solution of β-cyclocitral were prepared. 1 ml of the β-ionone was placed on a piece of filter paper (cellulose, 75 mm dia.) and left for 2 minutes for the ethanol to evaporate. The filter paper was then placed in a glovebox containing an ozone "scrubber" and an ozone monitor (Aeroqual series 200 fitted with a 0 to 0.5 ppm sensor). Throughout the experiment the ozone level inside the glovebox was below the detection limit of the monitor. The ozone scrubber comprised an air pump (Interpet AirVolution AV4), pumping air at a rate of 600 l/hr through 0.75 g/l sodium thiosulphate solution.
After 1 hour exposure the filter paper was sealed in a 500 ml glass jar that had been adapted such that a SPME fibre could be introduced via a septum in the lid. The headspace above the sample was analysed using a Carboxen/DVB/PDMS SPME fibre using a 30 minute exposure. The fibre was then analysed by GC-MS. The filter paper was then removed, placed in a 28 ml glass vial and 3 ml of ethanol added. The vial was rollered for two hours after which the free ethanol was removed and analysed by GC-MS. The β-cyclocitral in ethanol solution was also analysed to indicate the appropriate retention time. […]

For CC(=O)/C=C/C1=C(C)CCCC1(C)C [β-ionone], the “ratio of β-cyclocitral to β-ionone” value ([1]; 250 ppb ozone) was 0.72, the “ratio of β-cyclocitral to β-ionone” value ([1]; 350 ppb ozone) was 2.67 and the “ratio of β-cyclocitral / β-ionone” value ([2]; 1 hour) was 0.43. The “ratio of β-cyclocitral / β-ionone” value ([2]; 2 hour) was 0.95, the “ratio of β-cyclocitral / β-ionone” value ([2]; 3 hour) was 1.87 and the “ratio of β-cyclocitral / β-ionone” value ([2]; 4 hour) was 7.00. For the same compound, the “ratio of β-cyclocitral / β-ionone” value ([2]; 5 hour) was 11.00, the “β-cyclocitral detected in the headspace” value ([3]; SPME GC-MS of headspace) was “No β-cyclocitral was detected” and the “β-cyclocitral detected on the filter paper” value ([3]; ethanol extract of filter paper, GC-MS) was “No β-cyclocitral was detected”.
